# Experimental data: patent US11680056B2, “MK2 inhibitors and uses thereof” (Xinthera, Inc., priority 2021, dated 2023)
# Where two headings read alike, the source gives them in different places.
# Tests used:
# p38a/MK2 = p38a/MK2 (Homo sapiens (Human), UniProt P49137+Q16539); experiment: p38a/MK2 biochemical assay: activation of MK2 by p38, FITC-HSP27 peptide phosphorylation (IMAP FP); conditions: 10-point 1:3 dilution, 60 pM active p38a, 1 nM inactive MK2, 10 μM ATP, 2 h incubation
# p38a/PRAK = p38a/PRAK (Homo sapiens (Human), UniProt Q16539); experiment: p38a/PRAK biochemical assay: activation of PRAK by p38, FITC-HSP27 peptide phosphorylation (IMAP FP); conditions: 10-point 1:3 dilution, top dose 300 μM; 60 pM active p38a, 1 nM inactive PRAK, 10 μM ATP, 2 h incubation; read-out: p38a/PRAK Enzyme pIC50 (converted)
# Summary of the method: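 GST-tagged MK2 (F46–H400) and PRAK (M1–Q471), expressed in E. coli, activated by p38 and phosphorylate FITC-HSP27 peptide over 2 h with compound; readout by IMAP fluorescence polarisation (ex 485/em 528 nm). Ten-point 1:3 dilutions, top dose 1 μM for MK2 and 300 μM for PRAK. IC50 after vehicle normalisation; selectivity = IC50(PRAK)/IC50(MK2).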
# [1] = top dose 10 μM, read-out: p38a/MK2 (10 μM) Enzyme pIC50 (converted)
# [2] = top dose 1 μM, read-out: p38a/MK2 (1 μM) Enzyme pIC50 (converted)
# p38a/PRAK, sequence (Q16539 whole entry): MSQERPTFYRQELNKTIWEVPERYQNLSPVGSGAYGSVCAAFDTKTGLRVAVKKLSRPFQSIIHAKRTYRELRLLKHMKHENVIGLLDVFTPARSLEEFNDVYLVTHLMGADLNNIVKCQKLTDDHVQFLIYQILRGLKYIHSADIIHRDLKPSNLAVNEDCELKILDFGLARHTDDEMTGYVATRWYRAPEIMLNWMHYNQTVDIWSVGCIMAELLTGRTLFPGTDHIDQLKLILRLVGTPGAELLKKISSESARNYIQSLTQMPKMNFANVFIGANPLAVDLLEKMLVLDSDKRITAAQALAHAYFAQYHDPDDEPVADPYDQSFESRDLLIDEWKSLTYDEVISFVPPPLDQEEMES
# p38a/MK2, sequence (P49137 46-400): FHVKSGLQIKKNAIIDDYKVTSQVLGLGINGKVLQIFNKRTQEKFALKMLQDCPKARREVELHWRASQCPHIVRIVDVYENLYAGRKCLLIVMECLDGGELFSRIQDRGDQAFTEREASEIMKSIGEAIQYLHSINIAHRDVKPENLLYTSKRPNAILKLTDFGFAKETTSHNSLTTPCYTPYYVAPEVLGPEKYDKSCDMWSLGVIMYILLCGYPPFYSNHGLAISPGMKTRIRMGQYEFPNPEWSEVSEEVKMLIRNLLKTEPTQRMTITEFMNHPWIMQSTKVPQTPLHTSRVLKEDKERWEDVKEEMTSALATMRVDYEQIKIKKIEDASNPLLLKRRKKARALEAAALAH
# p38a/MK2, sequence (Q16539 whole entry): as the sequence (Q16539 whole entry) above
SMILES,IC50 (p38a/MK2; [1]) [µM],IC50 (p38a/PRAK) [µM],IC50 (p38a/MK2; [2]) [µM]
"CCc1cnc(-c2ccnc(C(C)(C)O)n2)cc1-n1c(C)cc(OCc2ncc(F)cc2F)c(Cl)c1=O (single isomer, unassigned) [Example 29A, rel-3-chloro-4-((3,5-difluoropyridin-2-yl)methoxy)-5′-ethyl-2′-(2-(2-hydroxypropan-2-yl)pyrimidin-4-yl)-6-methyl-2H-[1,4′-bipyridin]-2-one]",,12.6,0.00794
"Cc1cc(COc2cc(C)n(-c3cc(-c4ccnc(C(C)(C)O)n4)ncc3C)c(=O)c2Cl)ncc1F (single isomer, unassigned) [Example 22B, rel-3-chloro-4-[(5-fluoro-4-methylpyridin-2-yl)methoxy]-2′-[2-(2-hydroxypropan-2-yl)pyrimidin-4-yl]-5′,6-dimethyl-[1,4′-bipyridin]-2-one]",> 10,> 316,
"Cc1cnc(-c2cccc(C(C)(C)O)n2)c(F)c1-n1c(C)cc(OCc2ncc(F)cc2F)c(Cl)c1=O (single isomer, unassigned) [Example 63A, rel-3-chloro-4-[(3,5-difluoropyridin-2-yl)methoxy]-1-[3-fluoro-6′-(2-hydroxypropan-2-yl)-5-methyl-[2,2′-bipyridin]-4-yl]-6-methylpyridin-2-one]",,> 316,> 0.1
"COCC(C)(O)c1nccc(-c2cc(-n3c(C)cc(OCc4ncc(F)cc4F)c(Cl)c3=O)c(C)cn2)n1 (racemic) [Example 55, 3-chloro-4-[(3,5-difluoropyridin-2-yl)methoxy]-2′-[2-(2-hydroxy-1-methoxypropan-2-yl)pyrimidin-4-yl]-5′,6-dimethyl-[1,4′-bipyridin]-2-one]",,10,0.0631
"Cc1cnc(-c2cccc([C@H](O)CO)n2)cc1-n1c(C)cc(OCc2ncc(F)cc2F)c(Cl)c1=O (single isomer, unassigned) [Example 34B, rel-3-chloro-4-[(3,5-difluoropyridin-2-yl)methoxy]-2′-[6-(1,2-dihydroxyethyl)pyridin-2-yl]-5′,6-dimethyl-[1,4′-bipyridin]-2-one]",0.0126,6.31,

# The remaining lines, values ahead:
IC50 (p38a/MK2; [1]) [µM],IC50 (p38a/PRAK) [µM],IC50 (p38a/MK2; [2]) [µM],SMILES
> 10,> 316,,"Cc1cnc(-c2nc(C(C)(C)O)ncc2C2CC2)cc1-n1c(C)cc(OCc2ncc(F)cc2F)c(Cl)c1=O (single isomer, unassigned) [Example 31B, rel-3-chloro-2′-(5-cyclopropyl-2-(2-hydroxypropan-2-yl)pyrimidin-4-yl)-4-((3,5-difluoropyridin-2-yl)methoxy)-5′,6-dimethyl-2H-[1,4′-bipyridin]-2-one]"
> 10,> 316,,"Cc1cnc(-c2ccnc(C3(CO)CC3)n2)cc1-n1c(C)cc(OCc2ncc(F)cc2F)c(Cl)c1=O (single isomer, unassigned) [Example 21A, rel-3-chloro-4-((3,5-difluoropyridin-2-yl)methoxy)-2′-(2-(1-(hydroxymethyl)cyclopropyl)pyrimidin-4-yl)-5′,6-dimethyl-2H-[1,4′-bipyridin]-2-one]"
,> 316,> 1,"Cc1cnc(-c2ccnc(N(C)CCO)n2)cc1-n1c(C)cc(OCc2ncc(F)cc2F)c(Cl)c1=O (single isomer, unassigned) [Example 43B, rel-3-chloro-4-[(3,5-difluoropyridin-2-yl)methoxy]-2′-{2-[(2-hydroxyethyl)(methyl)amino]pyrimidin-4-yl}-5′,6-dimethyl-[1,4′-bipyridin]-2-one]"
,> 316,> 1,"Cc1cnc(-n2ccc(C(=O)NC3CC3)n2)cc1-n1c(C)cc(OCc2ncc(F)cc2F)c(Cl)c1=O (single isomer, unassigned) [Example 44B, rel-1-{3-chloro-4-[(3,5-difluoropyridin-2-yl)methoxy]-5′,6-dimethyl-2-oxo-[1,4′-bipyridin]-2′-yl}-N-cyclopropylpyrazole-3-carboxamide]"
,2,0.00501,"Cc1cnc(-c2ccnc(CC3(O)CC3)n2)cc1-n1c(C)cc(OCc2ncc(F)cc2F)c(Cl)c1=O (single isomer, unassigned) [Example 48A, rel-3-chloro-4-[(3,5-difluoropyridin-2-yl)methoxy]-2′-{2-[(1-hydroxycyclopropyl)methyl]pyrimidin-4-yl}-5′,6-dimethyl-[1,4′-bipyridin]-2-one]"
,> 316,> 1,"Cc1cnc(-n2ccc(C(C)(C)CO)n2)cc1-n1c(C)cc(OCc2ncc(F)cc2F)c(Cl)c1=O (single isomer, unassigned) [Example 37B, rel-3-chloro-4-[(3,5-difluoropyridin-2-yl)methoxy]-2′-[3-(1-hydroxy-2-methylpropan-2-yl)pyrazol-1-yl]-5′,6-dimethyl-[1,4′-bipyridin]-2-one]"
